In patent US10385103B2, “Cell-permeable (ICP)-SOCS3 recombinant protein and uses thereof” (CELLIVERY THERAPEUTICS, INC., priority 2014, dated 2019):

Test system: RAW 264.7 cells
Assay: Quantitative cell-permeability of FITC-labeled aMTD- or rPeptide-fused CRA recombinant proteins (flow cytometry)
Assay type: cell-based
Conditions: for Relative Ratio to aMTD AVE: cell-permeability of rPeptide-fused CRA recombinant protein relative to average of 240 aMTDs
How it was run: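 Uptake of fluorescently labeled, peptide-fused cargo proteins was quantified by flow cytometry (Guava, Millipore) and analyzed in FlowJo software. RAW 264.7 cells received 10 μM FITC-labeled protein for 1 hour at 37° C., were rinsed three times with cold PBS, and were trypsinized with 0.25% tripsin/EDTA for 20 minutes at 37° C. to remove bound protein before measurement. Permeability was expressed relative to reference proteins.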

[1] = cell-permeability of aMTD-fused CRA recombinant protein relative to negative control (A: rP38)
[2] = cell-permeability of aMTD-fused CRA recombinant protein relative to reference CPP (B: MTM12)
[3] = cell-permeability of aMTD-fused CRA recombinant protein relative to reference CPP (C: MTD85)
[4] = 10 μM FITC-labeled, 1 hour, 37° C., RAW 264.7 cells
[5] = cell-permeability relative to negative control rP38 (A type), aMTD-fused CRA recombinant protein, 10 μM FITC-labeled, 1 hour, 37° C., RAW 264.7 cells
[6] = cell-permeability relative to reference CPP MTD85 (C type), aMTD-fused CRA recombinant protein, 10 μM FITC-labeled, 1 hour, 37° C., RAW 264.7 cells
[7] = cell-permeability relative to reference CPP MTM12 (B type), aMTD-fused CRA recombinant protein, 10 μM FITC-labeled, 1 hour, 37° C., RAW 264.7 cells

Row | Substance | Relative Ratio (Fold) A [1] [Fold] | Relative Ratio (Fold) B [2] [Fold] | Relative Ratio (Fold) C [3] [Fold] | further results
1 | 687 (AILAVALPLLAP; Amino acid Sequence of aMTD687) [compound 687] | 12.0 | 7.0 | 4.1 | –
2 | 692 (PAPLPPVVILAV; Amino acid Sequence of rPeptide ID 692) [compound 692] | – | – | – | Relative Ratio to aMTD AVE [4]: 0.74
3 | 693 (AAPVLPVAVPIV; Amino acid Sequence of rPeptide ID 693) [compound 693] | – | – | – | Relative Ratio to aMTD AVE [4]: 0.13
4 | 700 (GTSNTCQSNQNS; Amino acid Sequence of rPeptide ID 700) [compound 700] | – | – | – | Relative Ratio to aMTD AVE [4]: 0.05; Relative Ratio (Fold) A (relative cell-permeability of rPeptide vs reference A (not defined)): 1.0 Fold; Relative Ratio (Fold) B (relative cell-permeability of rPeptide vs reference CPP B: MTM12): 0.6 Fold; Relative Ratio (Fold) C (relative cell-permeability of rPeptide vs reference CPP C: MTD85): 0.3 Fold
5 | 703 (IVAVALVPALAP; Amino acid Sequence of aMTD703) [compound 703] | 29.2 | 19.5 | 9.9 | –
6 | 705 (IVAVALLPALAP; Amino acid Sequence of aMTD705) [compound 705] | 29.6 | 19.1 | 9.7 | –
7 | 706 (IVAVALLPAVAP; Amino acid Sequence of aMTD706) [compound 706] | 12.0 | 7.0 | 4.1 | –
8 | 707 (IVALAVLPAVAP; Amino acid Sequence of aMTD707) [compound 707] | – | – | – | Relative Ratio (Fold) A [5]: 7.3 Fold; Relative Ratio (Fold) C [6]: 2.5 Fold; Relative Ratio (Fold) B [7]: 4.9 Fold
9 | 724 (VAVLAVLPALAP; Amino acid Sequence of aMTD724) [compound 724] | 47.5 | 31.8 | 16.1 | –
10 | 725 (IAVLAVAPAVLP; Amino acid Sequence of aMTD725) [compound 725] | 11.2 | 7.5 | 3.8 | –
11 | 726 (LAVAIIAPAVAP; Amino acid Sequence of aMTD726) [compound 726] | 16.5 | 11.0 | 5.6 | –
12 | 727 (VALAIALPAVLP; Amino acid Sequence of aMTD727) [compound 727] | 54.7 | 36.7 | 18.5 | –
13 | 743 (AIAIALVPVALP; Amino acid Sequence of aMTD743) [compound 743] | 7.4 | 4.9 | 2.5 | –
14 | 744 (AAVVIVAPVALP; Amino acid Sequence of aMTD744) [compound 744] | 11.0 | 7.3 | 3.7 | –
15 | 746 (VAIIVVAPALAP; Amino acid Sequence of aMTD746) [compound 746] | 7.6 | 4.4 | 2.6 | –
16 | 763 (VAVLIAVPALAP; Amino acid Sequence of aMTD763) [compound 763] | 12.3 | 7.2 | 4.2 | –
17 | 764 (AVALAVLPAVVP; Amino acid Sequence of aMTD764) [compound 764] | – | – | – | Relative Ratio (Fold) A [5]: 5.0 Fold; Relative Ratio (Fold) C [6]: 1.7 Fold; Relative Ratio (Fold) B [7]: 3.4 Fold
18 | 765 (AVALAVVPAVLP; Amino acid Sequence of aMTD765) [compound 765] | – | – | – | Relative Ratio (Fold) A [5]: 3.8 Fold; Relative Ratio (Fold) C [6]: 1.3 Fold; Relative Ratio (Fold) B [7]: 2.2 Fold

Row | Substance | Relative Ratio (Fold) A [1] [Fold] | Relative Ratio (Fold) B [2] [Fold] | Relative Ratio (Fold) C [3] [Fold] | further results
19 | 766 (IVVIAVAPAVAP; Amino acid Sequence of aMTD766) [compound 766] | 12.9 | 8.6 | 4.4 | –
20 | 767 (IVVAAVVPALAP; Amino acid Sequence of aMTD767) [compound 767] | 8.5 | 5.0 | 2.9 | –
21 | 783 (IVALVPAVAIAP; Amino acid Sequence of aMTD783) [compound 783] | – | – | – | Relative Ratio (Fold) A [5]: 5.7 Fold; Relative Ratio (Fold) C [6]: 1.9 Fold; Relative Ratio (Fold) B [7]: 3.8 Fold
22 | 784 (VAALPAVALVVP; Amino acid Sequence of aMTD784) [compound 784] | – | – | – | Relative Ratio (Fold) A [5]: 7.1 Fold; Relative Ratio (Fold) C [6]: 2.4 Fold; Relative Ratio (Fold) B [7]: 4.7 Fold
23 | 786 (LVAIAPLAVLAP; Amino acid Sequence of aMTD786) [compound 786] | 21.2 | 14.2 | 7.2 | –
24 | 788 (AIAVAIAPVALP; Amino acid Sequence of aMTD788) [compound 788] | 9.8 | 6.6 | 3.3 | –
25 | 803 (AIALAVPVLALP; Amino acid Sequence of aMTD803) [compound 803] | 74.7 | 50.0 | 25.3 | –
26 | 805 (LVLIAAAPIALP; Amino acid Sequence of aMTD805) [compound 805] | 22.3 | 14.9 | 7.6 | –
27 | 806 (LVALAVPAAVLP; Amino acid Sequence of aMTD806) [compound 806] | 36.7 | 24.6 | 12.4 | –
28 | 807 (AVALAVPALVLP; Amino acid Sequence of aMTD807) [compound 807] | – | – | – | Relative Ratio (Fold) A [5]: 5.0 Fold; Relative Ratio (Fold) C [6]: 1.7 Fold; Relative Ratio (Fold) B [7]: 3.3 Fold
29 | 809 (LIVLAAPALAAP; Amino acid Sequence of aMTD809) [compound 809] | – | – | – | Relative Ratio (Fold) A [5]: 7.0 Fold; Relative Ratio (Fold) C [6]: 2.4 Fold; Relative Ratio (Fold) B [7]: 4.7 Fold
30 | 810 (VIVLAAPALAAP; Amino acid Sequence of aMTD810) [compound 810] | 120.0 | 80.3 | 40.6 | –
31 | 811 (AVVLAVPALAVP; Amino acid Sequence of aMTD811) [compound 811] | 46.5 | 31.1 | 15.7 | –
32 | 824 (LIIVAAAPAVAP; Amino acid Sequence of aMTD824) [compound 824] | 32.8 | 21.9 | 11.1 | –
33 | 825 (IVAVIVAPAVAP; Amino acid Sequence of aMTD825) [compound 825] | 69.7 | 46.6 | 23.5 | –
34 | 826 (LVALAAPIIAVP; Amino acid Sequence of aMTD826) [compound 826] | 49.2 | 32.9 | 18.6 | –
35 | 827 (IAAVLAAPALVP; Amino acid Sequence of aMTD827) [compound 827] | 43.0 | 28.8 | 14.6 | –
36 | 828 (IALLAAPIIAVP; Amino acid Sequence of aMTD828) [compound 828] | 36.8 | 24.6 | 12.4 | –
